Measured values published in the PolyMetriX glass transition set.

| Compound | glass transition temperature [°C] |
| --- | --- |
| */C=C/c1ccc(N(c2ccc(/C=C/c3ccc4c5ccc(*)cc5n(CC(CC)CCCC)c4c3)cc2)c2ccc(OCC(CC)CCCC)cc2)cc1 (repeat unit) | 132.00 |
| *C(=O)c1ccc(C(C)(CC)c2ccc(C(=O)N3CCN(*)CC3)cc2)cc1 (repeat unit) | 232.00 |
| *C(=O)c1ccc(Oc2ccc(N3C(=O)c4ccc(*)cc4C3=O)cc2)cc1 (repeat unit) | 297.00 |
| *C(=O)c1ccc2c(c1)C(=O)N(c1ccc(Oc3ccc(Oc4ccc(N5C(=O)c6ccc(*)cc6C5=O)cc4C(F)(F)F)cc3)cc1)C2=O (repeat unit) | 237.10 |
| *C(=O)c1ccc2c(c1)C(=O)N(c1ccc(Oc3cccc(-c4cc(-c5ccccc5)cc(-c5cccc(Oc6ccc(N7C(=O)c8ccc(*)cc8C7=O)cc6)c5)n4)c3)cc1)C2=O (repeat unit) | 260.00 |
| *C(=O)c1ccc2c(c1)C(=O)N(c1ccc(Oc3cccc(N4C(=O)c5ccc(*)cc5C4=O)c3)cc1)C2=O (repeat unit) | 280.50 |
| *C(=O)c1ccc2c(c1)C(=O)N(c1ccc(Sc3ccc(N4C(=O)c5ccc(*)cc5C4=O)cn3)nc1)C2=O (repeat unit) | 246.00 |
| *C(=O)c1cccc(C(=O)c2ccc3c(c2)C(=O)N(c2ccc(Oc4ccc(S(=O)(=O)c5ccc(Oc6ccc(N7C(=O)c8ccc(*)cc8C7=O)cc6)cc5)cc4)cc2)C3=O)c1 (repeat unit) | 249.00 |
| *CCCCOC(=O)c1ccc(C(C)(C)c2ccc(C(=O)O*)cc2)cc1 (repeat unit) | 44.00 |
| *CCCCOC(=O)c1ccc([Si](C)(C)c2ccc(C(=O)O*)cc2)cc1 (repeat unit) | 42.00 |
| *CCCc1ccc(-c2c(-c3ccccc3)cc(-c3ccc(-c4cc(-c5ccccc5)c(-c5ccc(*)cc5)c(-c5ccccc5)c4-c4ccccc4)cc3)c(-c3ccccc3)c2-c2ccccc2)cc1 (repeat unit) | 290.00 |
| *CCCc1ccc(-c2c(-c3ccccc3)cc(-c3cccc(-c4cc(-c5ccccc5)c(-c5ccc(*)cc5)c(-c5ccccc5)c4-c4ccccc4)c3)c(-c3ccccc3)c2-c2ccccc2)cc1 (repeat unit) | 240.00 |
| *CCOC(=O)c1ccc(C(C)(CC)c2ccc(C(=O)O*)cc2)cc1 (repeat unit) | 95.00 |
| *CNC(=O)OCC(OC(=O)NCc1ccc(C(C)(C)c2ccc(*)o2)o1)c1ccco1 (repeat unit) | 20.00 |
| *CNC(=O)OCCOC(=O)NCc1ccc(C(C)(C)c2ccc(*)o2)o1 (repeat unit) | 50.00 |
| *CNC(=O)OCc1ccc(COC(=O)NCc2ccc(C(C)(C)c3ccc(*)o3)o2)o1 (repeat unit) | 55.00 |
| *CNC(=O)OCc1cocc1COC(=O)NCc1ccc(C(C)(C)c2ccc(*)o2)o1 (repeat unit) | 25.00 |
| *Cc1ccc(C(C)(C)c2ccc(CN3C(=O)c4ccc(-c5ccc6c(c5)C(=O)N(*)C6=O)cc4C3=O)o2)o1 (repeat unit) | 129.00 |
| *Cc1ccc(C(C)(C)c2ccc(CN3C(=O)c4ccc(C(c5ccc6c(c5)C(=O)N(*)C6=O)(C(F)(F)F)C(F)(F)F)cc4C3=O)o2)o1 (repeat unit) | 134.00 |
| *Cc1ccc(C(C)(CC)c2ccc(Cn3c(=O)c4cc5c(=O)n(*)c(=O)c5cc4c3=O)o2)o1 (repeat unit) | 143.00 |

| Compound | glass transition temperature [°C] |
| --- | --- |
| *Cc1ccc(C(C)(CCC)c2ccc(Cn3c(=O)c4cc5c(=O)n(*)c(=O)c5cc4c3=O)o2)o1 (repeat unit) | 134.00 |
| *Nc1ccc(-c2ccc(NC(=O)c3ccc(NC(=O)c4ccc([Si](C)(C)c5ccc(C(=O)Nc6ccc(C(*)=O)cc6)cc5)cc4)cc3)cc2)cc1 (repeat unit) | 320.00 |
| *Nc1ccc(C(c2ccc(NC(=O)c3ccc(-c4ccc(C(*)=O)c(C)c4)cc3C)cc2)(C(F)(F)F)C(F)(F)F)cc1 (repeat unit) | 289.00 |
| *Nc1ccc(NC(=O)c2ccc(NC(=O)c3ccc([Si](C)(C)c4ccc(C(=O)Nc5ccc(C(*)=O)cc5)cc4)cc3)cc2)cc1 (repeat unit) | 338.00 |
| *Nc1cccc(NC(=O)c2ccc(NC(=O)c3ccc([Si](C)(C)c4ccc(C(=O)Nc5ccc(C(*)=O)cc5)cc4)cc3)cc2)c1 (repeat unit) | 303.00 |
| *OS(=O)(=O)c1cc(S(=O)(=O)Oc2ccc(C3(c4ccc(*)cc4)CCCCC3)cc2)ccc1C (repeat unit) | 142.00 |
| *Oc1ccc(-c2ccc(OC(=O)c3cc(/N=N/c4ccc(OCC)cc4)ccc3-c3ccc(/N=N/c4ccc(OCC)cc4)cc3C(*)=O)cc2)cc1 (repeat unit) | 165.00 |
| *Oc1ccc(/N=C/c2ccc(N(c3ccccc3)c3ccc(/C=N/c4ccc(*)cc4)cc3)cc2)cc1 (repeat unit) | 162.00 |
| *Oc1ccc(C(=O)c2ccc(OC(=O)c3ccc(C(C)(C)c4ccc(C(*)=O)cc4)cc3)cc2)cc1 (repeat unit) | 130.00 |
| *Oc1ccc(C(C)(C)c2ccc(OC(=O)c3ccc(C(C)(CC)c4ccc(C(*)=O)cc4)cc3)cc2)cc1 (repeat unit) | 211.00 |
| *Oc1ccc(C(c2ccc(Oc3ccc(C(=O)c4ccc(C(C)(C)c5ccc(C(=O)c6ccc(*)cc6)cc5)cc4)cc3)cc2)(C(F)(F)F)C(F)(F)F)cc1 (repeat unit) | 179.00 |
| *Oc1ccc(Cc2ccc(OC(=O)c3ccc(C(C)(C)c4ccc(C(*)=O)cc4)cc3)cc2)cc1 (repeat unit) | 140.00 |
| *Oc1ccc(N(CC)c2ccc(/C=C(\C#N)C(=O)NC3CCCCC3NC(=O)/C(C#N)=C/c3ccc(N(CC)c4ccc(*)cc4)cc3)cc2)cc1 (repeat unit) | 235.00 |
| *Oc1ccc(NC(=O)c2ccc(-c3ccc(C(=O)Nc4ccc(Oc5ccc(C(C)(C)c6ccc(*)cc6)cc5)cc4)c(C)c3)cc2C)cc1 (repeat unit) | 230.00 |
| *Oc1ccc(NC(=O)c2ccc([Si](C)(C)c3ccc(C(*)=O)cc3)cc2)cc1 (repeat unit) | 220.00 |
| *Oc1ccc(OC(=O)c2ccc([Si](C)(C)c3ccc(C(*)=O)cc3)cc2)cc1 (repeat unit) | 176.00 |
| *Oc1cccc(Oc2ccc(NC(=O)c3ccc(-c4ccc(C(=O)Nc5ccc(*)cc5)c(C)c4)cc3C)cc2)c1 (repeat unit) | 213.00 |
| *Sc1ccc(C(=O)c2ccc(C(C)(C)c3ccc(C(=O)c4ccc(*)cc4)cc3)cc2)cc1 (repeat unit) | 175.00 |
| *c1ccc(-c2cc(C(C)(C)C)c(Oc3ccc(-n4c(=O)c5cc6c(=O)n(*)c(=O)c6cc5c4=O)cc3)c(C(C)(C)C)c2)cc1 (repeat unit) | 398.50 |
| *c1ccc(-c2cc(C(C)(C)C)c(Oc3ccc(-n4c(=O)c5cc6c(=O)n(*)c(=O)c6cc5c4=O)cc3C(F)(F)F)c(C(C)(C)C)c2)cc1 (repeat unit) | 420.00 |

| Compound | glass transition temperature [°C] |
| --- | --- |
| *c1ccc(-c2ccc(-c3cc(CCCCCCCC)c(-c4ccc(-c5sc(*)cc5CCCCCCCC)cc4)s3)cc2)cc1 (repeat unit) | 0.60 |
| *c1ccc(-c2sc(-c3ccc(-c4cc(SCCCCCCCC)c(*)s4)cc3)cc2SCCCCCCCC)cc1 (repeat unit) | -38.80 |
| *c1ccc(-c2sc(-c3ccc(-n4c(=O)c5cc6c(=O)n(*)c(=O)c6cc5c4=O)cc3)c(-c3ccccc3)c2-c2ccccc2)cc1 (repeat unit) | 460.00 |
| *c1ccc(C(*)C)cc1 (repeat unit) | 93.00 |
| *c1ccc(C(C#N)(C(=O)O)C(*)(C#N)C(=O)O)cc1 (repeat unit) | 108.00 |
| *c1ccc(C(C#N)(C(=O)OCCCC)C(*)(C#N)C(=O)OCCCC)cc1 (repeat unit) | 108.00 |
| *c1ccc(C(Cl)(Cl)C(*)Cl)cc1 (repeat unit) | 160.00 |
| *c1ccc(C(c2ccc(C#N)cc2)c2ccc(N(*)c3ccc(C)cc3)cc2)cc1 (repeat unit) | 230.00 |
| *c1ccc(C2(c3ccc(-c4cc(-c5ccccc5)c5cc(-c6ccc7nc(*)cc(-c8ccccc8)c7c6)ccc5n4)cc3)c3ccccc3-c3ccccc32)cc1 (repeat unit) | 420.00 |
| *c1ccc(CCc2ccc(N3C(=O)C(=O)N(c4ccc(CCc5ccccc5N5C(=O)C(=O)N(*)C5=O)cc4)C3=O)cc2)cc1 (repeat unit) | 220.00 |
| *c1ccc(Cc2ccc(-n3nc(-c4ccccc4)cc3-c3ccc(-c4cc(-c5ccccc5)nn4*)cc3)cc2)cc1 (repeat unit) | 252.00 |
| *c1ccc(Cc2ccc(N3C(=O)C4CCC5C(=O)N(*)C(=O)C5C4C3=O)cc2)cc1 (repeat unit) | 341.00 |
| *c1ccc(Cc2ccc(N3C(=O)N(c4ccc(Cc5ccc(N6C(=O)N(*)C(C)(C)C6=O)cc5)cc4)C(=O)C3(C)C)cc2)cc1 (repeat unit) | 259.50 |
| *c1ccc(Cc2ccc(N3C(=O)c4c(c(-c5ccccc5)c(-c5ccc(Oc6ccc(-c7c(-c8ccccc8)c8c(c(-c9ccccc9)c7-c7ccccc7)C(=O)N(*)C8=O)cc6)cc5)c(-c5ccccc5)c4-c4ccccc4)C3=O)cc2)cc1 (repeat unit) | 356.00 |
| *c1ccc(Cc2ccc(N3C(=O)c4ccc(Oc5ccc(Oc6ccc7c(c6)C(=O)N(*)C7=O)cc5)cc4C3=O)c(C)c2C)c(C)c1C (repeat unit) | 277.00 |
| *c1ccc(N/C=N/c2ccc(S(*)(=O)=O)cc2)cc1 (repeat unit) | 163.00 |
| *c1ccc(NC(=O)c2ccc(NC(=O)c3ccc([Si](C)(C)c4ccc(C(=O)Nc5ccc(C(=O)Nc6ccc(-c7sc(*)c(-c8ccccc8)c7-c7ccccc7)cc6)cc5)cc4)cc3)cc2)cc1 (repeat unit) | 337.00 |
| *c1ccc(OC(=O)c2ccc([Si](C)(C)c3ccc(C(=O)Oc4ccc(C5(*)OC(=O)c6ccccc65)cc4)cc3)cc2)cc1 (repeat unit) | 214.00 |
| *c1ccc(OC(=O)c2ccc([Si](C)(C)c3ccc(C(=O)Oc4ccc(C5(*)c6ccccc6C(=O)N5c5ccccc5)cc4)cc3)cc2)cc1 (repeat unit) | 255.00 |
